Source: US20220281899A1, “COMPOUND AND FLUORESCENTLY LABELED BIOLOGICAL SUBSTANCE USING THE SAME” (FUJIFILM Corporation, priority 2019, published 2022)

Legend:
Format in all cases: physicochemical
[1] = Evaluation of water solubility (PBS pH 7.4, UHPLC concentration of filtrate); settings: compound; PBS pH 7.4, 1% DMSO, 200 μM if completely dissolved
Protocol: 5 μL of a DMSO solution having a concentration of 20 mM of the above compound (hereinafter, referred to as a sample) and 495 μL of PBS having a pH of 7.4 were added and mixed in a 1.5 mL Eppendorf tube and stirred with a multi-shaker MS300 (product name, AS ONE Corporation) at 2,000 rpm for 30 minutes. The obtained mixed solution was allowed to be left for 60 minutes with light shielding and then subjected to centrifugal precipitation (12,000 rpm, 5 minutes). For the filtrate filtered using a filter having a pore diameter of 0.20 μm, the sample concentration was measured with Nexera UHPLC [product name, manufactured by Shimadzu Corporation, column: Shim-pack XR-ODSII] (the sample concentration is 200 μM in a case where the sample is completely dissolved) and evaluated based on the following evaluation standards.
In the present test, it is determined that a compound has passed the evaluation of the water solubility in a case where the compound has a rank “B” or higher.
B: 10 μM or more and less than 100 μM
C: 1 μM or more and less than 10 μM […]
(§1) The water solubility and the fluorescence quantum of the labeled antibody were evaluated according to the same methods as those described in Example 1 except that in the evaluation of the water solubility and the fluorescence quantum yield in Example 1, the sample for measurement was changed from the compound to the labeled antibody.

[2] = Evaluation of light resistance in aqueous solution (xenon lamp exposure, absorbance decrease); settings: compound; PBS pH 7.4; xenon lamp 22 mW/cm^2
Protocol: The above compound or labeled antibody (hereinafter, referred to as a sample) was dissolved in PBS having a pH of 7.4 so that the absorbance at the absorption wavelength peak was 0.095 to 0.105. In a state of being exposed to light using a merry-go-round type light irradiator, the obtained solution was subjected to the temporal measurement of the absorbance of the absorption wavelength peak of the sample with a spectroscope (manufactured by Agilent Technologies, Inc., product name: Agilent 8453).
For the light exposure using the merry-go-round type light irradiator, a xenon lamp UXL-500D-O (product name) manufactured by Ushio, Inc. was used, and an HA-50 filter and a Y44 filter manufactured by HOYA were used as sharp cut filters (both are product names), where the light exposure intensity was 22 mW/cm^2 (in terms of 500 nm conversion).
The absorbance at the absorption peak wavelength before light exposure was set to 100% and the light exposure time until the absorbance at this absorption peak wavelength decreases by 50% (the absorbance at the absorption peak wavelength reaches 50%) was measured. The results were evaluated based on the following evaluation standards. A high evaluation rank is highly preferable since stability is kept for a long time.
B: 60 hours or more and less than 80 hours
C: 40 hours or more and less than 60 hours
D: 20 hours or more and less than 40 hours […]

[3] = Evaluation of fluorescence quantum yield (PBS solution, pH 7.4); settings: compound
Protocol: A PBS solution (pH 7.4) of the above compound was evaluated according to the method described in the following reference document.
“A Guide to Recording Fluorescence Quantum Yields” (a HORIBA Scientific document, available from https://www.horiba.com/fileadmin/uploads/Scientific/Documents/Fluorescence/quantumyields trad.pdf)
In the present test, it is preferable that the fluorescence quantum yield satisfies the evaluation rank “B” or higher from the viewpoint of practicality as the fluorescent compound.
B: 0.7 or more and less than 0.9
C: 0.5 or more and less than 0.7
D: 0.3 or more and less than 0.5
F: not evaluable due to low water solubility
as §1

Row | SMILES | Water solubility [1] | Light resistance (light exposure time until absorbance at absorption peak reaches 50%) [2] | Fluorescence quantum yield [3]
1 | Cc1cc(C)n2c1C=C1C=CC(CCC(=O)O)=[N+]1[B-]2(F)F [BODIPY FL] | C (1 μM or more and less than 10 μM) | F (less than 10 hours) | B (0.7 or more and less than 0.9)
2 | CC1=CC(C)=[N+]2C1=C(C)c1c(C)cc(C)n1[B-]2(F)F [BODIPY493/503] | C (1 μM or more and less than 10 μM) | F (less than 10 hours) | A (0.9 or more)
